Drawing on ChEMBL document CHEMBL1147193, “New 5-substituted thiazolo[3,2-b][1,2,4]triazol-6-ones: synthesis and anticancer evaluation” (2007), this text covers Activity for 1 compound.

What all share (assay type): functional
Experiment [1] deals with SF-268. Put plainly: Anticancer activity against human SF268 cells assessed as growth of cells at 100 uM relative to untreated cells.
For experiment [2], the system named is MCF7. Put plainly: Anticancer activity against human MCF7 cells assessed as growth of cells at 100 uM relative to untreated cells.
Experiment [3] deals with NCI-H460. Put plainly: Anticancer activity against human NCI-H460 cells assessed as growth of cells at 100 uM relative to untreated cells.

For `O=c1/c(=C/C=C\c2ccccc2)sc2ncnn12`, the values for the Activity in experiment [1], in experiment [2] and in experiment [3] were 128%, 138% and 95%, respectively.
